The values below come from PMC5734940 (Toxicology and applied pharmacology, 2017).

Like-named read-outs stand apart in the source and are kept apart here.

The subject of data set [1] is Human iPSC-derived cardiomyocytes (iCell cardiomyocytes). The data set is classed as cell-based.
The test system is the same in data set [2]. As to the kind of experiment: Calcium flux assay. The conditions noted are these: for Ca2+-flux phenotype in words: text to Figure 3; for Effect on beat frequency (in words): at 10 and/or 30 μM, PAHs; for Typical phenotypic response of calcium-flux signal trace: 30 μM, after 30 minutes of exposure, Figure 3. On the technique in general: Calcium flux is commonly read through the fluorescence of an indicator in the cells.

Data set [3] has the same test system. The conditions noted are these: 30 min after treatment, JC-10.
For data set [4] the test system is unchanged. The conditions noted are these: for Cytotoxicity (in words): 24 hrs, concentrations up to 30 μM.
[5] abbreviates: at both short-term (30 min) and longer-term exposures (24 hrs).
[6] abbreviates: primarily at 24 hrs of exposure, Figure 5.

On to `C[n+]1ccc(-c2ccccc2)cc1.[I-]` [1-methyl-4-phenylpyridinium iodide, 1-Methyl-4-phenylpyridinium iodide (MPP+), reference compound], for which the “Cardiotoxic selectivity for peak frequency (selective = ratio ≥3)” value in data set [1] (setting [5]) is “selective”. In addition, the “Ca2+-flux phenotype in words” value in data set [2] was “decrease in the peak frequency concomitant with an increase in the average peak width”.
Consider `Brc1ccc(Oc2cc(Br)c(Br)cc2Br)c(Br)c1` [2,2′,4,4′,5-pentabromodiphenyl ether, 2,2′,4,4′,5-Pentabromodiphenyl ether], for which, in data set [1] (setting [5]), the “Cardiotoxic selectivity for peak frequency (selective = ratio ≥3)” value was “selective”.
Take `Brc1ccc(Oc2ccc(Br)cc2Br)c(Br)c1` [2,2′,4,4′-tetrabromodiphenyl ether, 2,2′4,4′-Tetrabromodiphenyl ether]: the “Cardiotoxic selectivity for peak frequency (selective = ratio ≥3)” value in data set [1] (setting [5]) is reported as “selective”.
In the case of `CCCCC(CC)COP(=O)(Oc1ccccc1)Oc1ccccc1` (centres unmarked) [2-ethylhexyl diphenyl phosphate, 2- Ethylhexyl diphenyl phosphate (EHDP)], the “Effect on mitochondria / mitochondria potential (in words)” value in data set [3] is on record as “selectively decreased mitochondria potential”.
As for `N#CCCNCCC#N` [3,3′-iminodipropionitrile, 3,3′-Iminodipropionitrile], the “Response in the Calcein AM readout” value in data set [4] (setting [6]) was “positive response”.
`c1cc2c3c(c1)ccc1cccc(c13)C2` [4-H-cyclopenta(d,e,f)phenanthrene, 4-H-Cyclopenta(d,e,f)phenanthrene]: in data set [2], the “Effect on beat frequency (in words)” value was “positive but generally weak effect”.
As for `C1=Cc2cccc3cccc1c23` [acenaphthylene, Acenaphthylene], the “Cardiotoxic selectivity for peak frequency (selective = ratio ≥3)” value in data set [1] (setting [5]) was “selective”. Also, the “Effect on beat frequency (in words)” value in data set [2] is given as “positive but generally weak effect”.
For the compound `c1ccc2cc3ccccc3cc2c1` [anthracene, Anthracene], in data set [4] (setting [6]), the “Response in the Calcein AM readout” value was “positive response”.
For `c1ccc2cc3c(ccc4ccccc43)cc2c1` [benz(a)anthracene, Benz(a)anthracene], in data set [4] (setting [6]), the “Response in the Calcein AM readout” value was “positive response”. Further, the “Effect on beat frequency (in words)” value in data set [2] is listed as “positive but generally weak effect”.
Take `c1ccc2c(c1)cc1ccc3cccc4ccc2c1c34` [benzo(a)pyrene, Benzo(a)pyrene]: in data set [2], the “Effect on beat frequency (in words)” value is reported as “positive but generally weak effect”.
As to `c1ccc2c(c1)-c1cccc3c1c-2cc1ccccc13` [benzo(b)fluoranthene, Benzo(b)fluoranthene], the “Response in the Calcein AM readout” value in data set [4] (setting [6]) is “positive response”. Moreover, in data set [2], the “Effect on beat frequency (in words)” value was “positive but generally weak effect”.
As for `c1ccc2c(c1)c1cccc3ccc4cccc2c4c31` [benzo(e)pyrene, Benzo(e)pyrene], the “Response in the Calcein AM readout” value in data set [4] (setting [6]) is “positive response”. Further, in data set [2], the “Typical phenotypic response of calcium-flux signal trace” value was “mild increases in peak frequency” and the “Effect on beat frequency (in words)” value is “positive but generally weak effect”.
For `c1ccc2cc3c(cc2c1)-c1cccc2cccc-3c12` [benzo(k)fluoranthene, Benzo(k)fluoranthene], the “Response in the Calcein AM readout” value in data set [4] (setting [6]) is on record as “positive response”. For the same compound, in data set [2], the “Typical phenotypic response of calcium-flux signal trace” value is reported as “mild increases in peak frequency” and the “Effect on beat frequency (in words)” value is listed as “positive but generally weak effect”.
Take `COc1ccc2cc3[n+](cc2c1OC)CCc1cc2c(cc1-3)OCO2` [berberine chloride, Berberine chloride, reference compound]: the “Cardiotoxic selectivity for peak frequency (selective = ratio ≥3)” value in data set [1] (setting [5]) is on record as “selective”. Moreover, the “Ca2+-flux phenotype in words” value in data set [2] is on record as “decrease in the peak frequency concomitant with an increase in the average peak width”.
As to `O=C(O)CCCC[C@@H]1SC[C@@H]2NC(=O)N[C@@H]21` [biotin, Biotin, reference compound], in data set [2], the “Typical phenotypic response of calcium-flux signal trace” value is on record as “unaffected regular Ca2+-flux” and the “Ca2+-flux phenotype in words” value is reported as “regular beating pattern”.
As to `CCOP(=S)(OCC)Oc1nc(Cl)c(Cl)cc1Cl` [chlorpyrifos, Chlorpyrifos], the “Effect on mitochondria / mitochondria potential (in words)” value in data set [3] was “selectively decreased mitochondria potential”.
As for `CC1(C)[C@H](C(=O)O[C@H](C#N)c2cccc(Oc3ccccc3)c2)[C@@H]1C=C(Br)Br` [deltamethrin, Deltamethrin], in data set [1] (setting [5]), the “Cardiotoxic selectivity for peak frequency (selective = ratio ≥3)” value was “selective”.
Same read-out and setting: the value for `CCCCC(CC)COC(=O)c1ccccc1C(=O)OCC(CC)CCCC` (centres unmarked) [di(2-ethylhexyl) phthalate, Di(2-ethylhexyl) phthalate] was “selective”.
`CN1C(=O)CN=C(c2ccccc2)c2cc(Cl)ccc21` [diazepam, Diazepam, reference compound]: in data set [2], the “Effect on peak frequency (in words)” value is “altered peak frequency”.
Consider `c1ccc2c(c1)Cc1ccccc1-2` [fluorene, Fluorene], for which, in data set [1] (setting [5]), the “Cardiotoxic selectivity for peak frequency (selective = ratio ≥3)” value is “selective”. The “Effect on beat frequency (in words)” value in data set [2] is “positive but generally weak effect”.
For `Cl[C@H]1[C@H](Cl)[C@@H](Cl)[C@@H](Cl)[C@H](Cl)[C@H]1Cl` [lindane, Lindane], in data set [3], the “Effect on mitochondria / mitochondria potential (in words)” value is listed as “selectively decreased mitochondria potential”.
Take `CCCCCC` [n-hexane, n-Hexane]: the “Response in the Calcein AM readout” value in data set [4] is recorded as “positive response”. In data set [4] (human), the “POD, Calcein AM readout” value was “below 30 μM”. In data set [2], the “Effect on peak frequency (in words)” value is listed as “altered peak frequency”.
As to `c1ccc2ccccc2c1` [naphthalene, Naphthalene], the “Effect on beat frequency (in words)” value in data set [2] was “positive but generally weak effect”.
Take `CCOP(=S)(OCC)Oc1ccc([N+](=O)[O-])cc1` [parathion, Parathion]: in data set [3], the “Effect on mitochondria / mitochondria potential (in words)” value is on record as “selectively decreased mitochondria potential”.
`CC1(C)C(C=C(Cl)Cl)C1C(=O)OCc1cccc(Oc2ccccc2)c1` (centres unmarked) [permethrin, Permethrin]: the “Cardiotoxic selectivity for peak frequency (selective = ratio ≥3)” value in data set [1] (setting [5]) is on record as “selective”.
`c1ccc2c(c1)ccc1ccccc12` [phenanthrene, Phenanthrene]: in data set [2], the “Effect on beat frequency (in words)” value is “positive but generally weak effect”.
Consider `c1cc2ccc3cccc4ccc(c1)c2c34` [pyrene, Pyrene], for which the “Cardiotoxic selectivity for peak frequency (selective = ratio ≥3)” value in data set [1] (setting [5]) is “selective”. Moreover, the “Effect on beat frequency (in words)” value in data set [2] is recorded as “positive but generally weak effect”.
As for `C=C(C)[C@H]1Cc2c(ccc3c2O[C@@H]2COc4cc(OC)c(OC)cc4[C@@H]2C3=O)O1` [rotenone, Rotenone], the “Cytotoxicity (in words)” value in data set [4] is “highly cytotoxic”. Further, the “POD values in most other endpoints queried, including cytotoxicity” value in data set [2] (endpoints other than JC-10 at 30 min) is “below 30 μM”. Besides, in data set [2], the “Ca2+-flux phenotype in words” value is listed as “Negative inotropic effects”.
Regarding `CC(C)(C)C(O)(CCc1ccc(Cl)cc1)Cn1cncn1` (centres unmarked) [tebuconazole, Tebuconazole], in data set [3], the “Effect on mitochondria / mitochondria potential (in words)” value was “selectively decreased mitochondria potential”.
`O=P(Oc1ccccc1)(Oc1ccccc1)Oc1ccccc1` [triphenyl phosphate, Triphenyl phosphate]: the “Effect on mitochondria / mitochondria potential (in words)” value in data set [3] was “selectively decreased mitochondria potential”.
With `CC(C)[C@@H]1NC(=O)[C@H](C)OC(=O)[C@@H](C(C)C)NC(=O)[C@@H](C(C)C)OC(=O)[C@H](C(C)C)NC(=O)[C@H](C)OC(=O)[C@@H](C(C)C)NC(=O)[C@@H](C(C)C)OC(=O)[C@H](C(C)C)NC(=O)[C@H](C)OC(=O)[C@@H](C(C)C)NC(=O)[C@@H](C(C)C)OC1=O` [valinomycin, Valinomycin, reference compound], the “Cytotoxicity (in words)” value in data set [4] was “highly cytotoxic”. Further, the “Effect on mitochondria / mitochondria potential (in words)” value in data set [3] was “strong effect”.
In the case of Phenol, isopropylated, phosphate (3:1), in data set [1], the “Cardiotoxic selectivity for peak frequency (selective = ratio ≥3)” value was “selective”. The “Shape of concentration response for cardiomyocyte peak frequency” value in data set [2] is given as “non-monotonic concentration responses”.
